Results: ChEMBL document CHEMBL1909046, “DrugMatrix in vitro pharmacology data”

Legend:
[1] = DRUGMATRIX: Glutamate, Kainate radioligand binding (ligand: [3H] Kainic acid); type: cell membranes, Rattus norvegicus, Wistar, Brain, Membrane; conditions: Not Active = under 50% inhibition at 10 µM
[2] = target: Carbonic anhydrase 2 (Homo sapiens, UniProt P00918); assay: DRUGMATRIX: Carbonic Anhydrase II enzyme inhibition (substrate: 4-Nitrophenyl acetate (4-NPA)); type: tissue-based; conditions: erythrocyte; Not Active = under 50% inhibition at 10 µM
[3] = target: T1, Leukotriene C4 synthase (Cavia porcellus, UniProt A6XA80); type: tissue-based, Lung;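 further: enzyme inhibition assay of leukotriene C4 synthase, using LTA4 as the substrate; in other assays of this panel Not Active means under 50% inhibition at 10 µM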
T1 sequence (A6XA80 whole entry): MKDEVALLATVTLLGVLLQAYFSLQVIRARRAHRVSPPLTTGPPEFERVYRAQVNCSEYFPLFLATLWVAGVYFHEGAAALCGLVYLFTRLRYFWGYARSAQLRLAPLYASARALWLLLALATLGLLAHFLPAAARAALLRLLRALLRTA

[4] = target: T2, Progesterone receptor (Bos taurus, UniProt Q690N0); assay: DRUGMATRIX: Progesterone radioligand binding (ligand: [3H] R-5020); type: tissue-based, Uterus; conditions: Not Active = under 50% inhibition at 10 µM
T2 sequence (Q690N0 whole entry): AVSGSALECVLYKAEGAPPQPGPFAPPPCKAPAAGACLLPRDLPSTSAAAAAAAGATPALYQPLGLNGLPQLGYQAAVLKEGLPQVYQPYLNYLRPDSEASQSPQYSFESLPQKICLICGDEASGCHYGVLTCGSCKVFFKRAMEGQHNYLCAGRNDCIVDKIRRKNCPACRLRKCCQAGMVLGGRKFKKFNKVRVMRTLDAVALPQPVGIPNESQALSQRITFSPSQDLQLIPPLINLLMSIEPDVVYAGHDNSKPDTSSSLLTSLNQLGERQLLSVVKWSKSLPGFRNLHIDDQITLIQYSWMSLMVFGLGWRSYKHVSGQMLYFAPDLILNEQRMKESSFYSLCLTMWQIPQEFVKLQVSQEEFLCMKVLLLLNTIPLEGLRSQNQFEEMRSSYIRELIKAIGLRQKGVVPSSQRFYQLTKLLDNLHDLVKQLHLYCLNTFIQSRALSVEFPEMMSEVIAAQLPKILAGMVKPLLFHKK

[5] = target: Melanocortin receptor 3 (Homo sapiens, UniProt P41968); type: cell membranes, HEK293, Membrane; conditions: hek293; further: in other assays of this panel Not Active means under 50% inhibition at 10 µM
[6] = target: T3, Polyunsaturated fatty acid lipoxygenase ALOX15 (Oryctolagus cuniculus, UniProt P12530); assay: biochemical; type: tissue-based, Reticulocytes; conditions: reticulocytes;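 further: inhibition of 15-lipoxygenase enzyme activity measured with linoleic acid as the substrate; in other assays of this panel Not Active means under 50% inhibition at 10 µM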
T3 sequence (P12530 whole entry): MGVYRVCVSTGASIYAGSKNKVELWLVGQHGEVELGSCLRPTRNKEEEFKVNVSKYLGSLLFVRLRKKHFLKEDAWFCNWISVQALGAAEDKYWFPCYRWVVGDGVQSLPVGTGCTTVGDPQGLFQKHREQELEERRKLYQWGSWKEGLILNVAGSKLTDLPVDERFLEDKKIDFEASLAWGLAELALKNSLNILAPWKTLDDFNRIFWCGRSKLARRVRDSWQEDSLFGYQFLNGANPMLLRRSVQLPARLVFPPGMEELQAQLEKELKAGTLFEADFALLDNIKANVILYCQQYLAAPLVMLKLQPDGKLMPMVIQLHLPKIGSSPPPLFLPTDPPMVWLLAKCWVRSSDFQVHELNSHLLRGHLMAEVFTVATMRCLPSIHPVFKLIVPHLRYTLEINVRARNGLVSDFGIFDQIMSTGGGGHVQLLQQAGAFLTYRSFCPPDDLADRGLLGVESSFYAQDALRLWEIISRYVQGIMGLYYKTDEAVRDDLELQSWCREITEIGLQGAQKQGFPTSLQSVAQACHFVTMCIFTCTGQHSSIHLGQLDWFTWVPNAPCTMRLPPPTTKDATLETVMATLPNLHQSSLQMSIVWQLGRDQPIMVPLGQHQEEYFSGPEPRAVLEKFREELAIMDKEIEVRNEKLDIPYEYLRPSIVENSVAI

[7] = target: Beta-1 adrenergic receptor (Homo sapiens, UniProt P08588); assay: DRUGMATRIX: Adrenergic beta1 radioligand binding (ligand: [125I] Cyanopindolol); type: cell membranes, CHO-K1, Membrane; conditions: cho-k1; Not Active = under 50% inhibition at 10 µM
Beta-1 adrenergic receptor, sequence (P08588 whole entry): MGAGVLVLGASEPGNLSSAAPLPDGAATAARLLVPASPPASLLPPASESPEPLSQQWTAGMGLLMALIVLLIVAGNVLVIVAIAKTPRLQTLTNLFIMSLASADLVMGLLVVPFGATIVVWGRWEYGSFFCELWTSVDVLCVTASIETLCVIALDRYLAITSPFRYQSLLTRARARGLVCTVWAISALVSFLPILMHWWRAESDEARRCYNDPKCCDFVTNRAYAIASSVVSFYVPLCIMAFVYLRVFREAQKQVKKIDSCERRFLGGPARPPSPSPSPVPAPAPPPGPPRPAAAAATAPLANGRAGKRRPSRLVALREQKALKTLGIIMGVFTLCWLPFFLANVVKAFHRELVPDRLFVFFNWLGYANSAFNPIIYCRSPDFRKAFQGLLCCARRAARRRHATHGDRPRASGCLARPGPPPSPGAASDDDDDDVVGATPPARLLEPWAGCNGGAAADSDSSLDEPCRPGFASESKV

Melanocortin receptor 3, sequence (P41968 whole entry): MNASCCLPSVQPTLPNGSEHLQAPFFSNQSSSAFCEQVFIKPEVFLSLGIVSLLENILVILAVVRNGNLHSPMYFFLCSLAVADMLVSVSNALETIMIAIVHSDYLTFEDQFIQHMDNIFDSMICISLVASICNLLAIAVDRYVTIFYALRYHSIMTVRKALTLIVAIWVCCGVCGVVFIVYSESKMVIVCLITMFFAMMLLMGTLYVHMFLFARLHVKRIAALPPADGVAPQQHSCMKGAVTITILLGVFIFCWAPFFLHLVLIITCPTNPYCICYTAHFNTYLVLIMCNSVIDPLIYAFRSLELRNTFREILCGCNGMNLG

CS(=O)(=O)c1ccc([C@@H](O)[C@@H](CO)NC(=O)C(Cl)Cl)cc1 [THIAMPHENICOL]
Not Active: IC50 [1] | Ki [1] | IC50 [2] | IC50 [3] | IC50 [4] | IC50 [5] | IC50 [6] | IC50 [7]

Clc1ccccc1CN1CCc2sccc2C1 [TICLOPIDINE]
Not Active: IC50 [1] | Ki [1] | IC50 [2] | IC50 [3] | IC50 [4] | IC50 [5] | IC50 [6] | IC50 [7]

CC(C)Oc1ccc2c(=O)c(-c3ccccc3)coc2c1 [IPRIFLAVONE]
Not Active: IC50 [1] | Ki [1] | IC50 [2] | IC50 [3] | IC50 [4] | IC50 [5] | IC50 [6] | IC50 [7]
